Results on one compound are retold here after patent US11702400B2, “Salt types, crystal forms, and preparation methods for benzopyrazole compounds as RHO kinase inhibitors” (MEDSHINE DISCOVERY INC., priority 2019, dated 2023).

A short description of this data set: Pharmacokinetic study of the crystal form A of the compound of formula (II-1) in Beagle dogs. In kind it is in vivo. Here is the method: Experimental purpose: To study the pharmacokinetics of the compounds in Beagle dogs
Experimental materials: Beagle dogs (12, half male and half female)
Experimental procedure: The pharmacokinetic characteristics of the compounds were tested in Beagle dogs after intravenous (IV) and oral (PO) administration using standard protocols. The candidate compounds were prepared into 0.5 mg/mL and 1.5 mg/mL clarified solutions and administrated to Beagle dogs for single intravenous injection and oral administration. The solvent for both intravenous and oral administration was 5% DMSO/95% (10% hydroxypropyl β-cyclodextrin) aqueous solution. 12 beagle dogs were used in this project, 6 beagle dogs (half male and half female) were administered intravenously at a dose of 1 mg/kg and plasma samples were collected at […], 0.5, 1, 2, 4, 8, 12, 24, 36, 48 and 72 h after administration, and the other 6 beagle dogs (half male and half female) were administered orally by gavage at a dose of 7.5 mg/kg and plasma samples were collected at 0.25, 0.5, 1, 2, 4, 8, 12, 24, 36, 48 and 72 h after administration. 15 μL of plasma sample was added to a 96-well plate, and 300 μL of internal standard working solution (MeOH (containing 1.00 ng/mL Verapamil and 0.1% formic acid (FA)): ACN (v:v, 50:50) solution) was added to precipitate the proteins, the 96-well plate was shaken for 15 min, followed by centrifugation at 4° C., 3220 g for 15 min. 150 μL of supernatant was placed in a new 96-well plate with 150 μL of aqueous solution containing 0.1% formic acid (FA) and shaken for 10 min, and then centrifuged at 4° C., 3220 g for 5 min. The sample was directly injected, and the plasma drug concentration was quantitatively analyzed by LC-MS/MS analysis method, and pharmacokinetic parameters were calculated, such as peak concentration (Cmax), clearance rate (CL), half-life (T1/2), […] (Vdss), area under the drug-time curve (AUC0-last), bioavailability (F), etc.

For `COc1cccc(C(CN)NC(=O)c2cc(-c3ccc4[nH]nc(C)c4c3)ccn2)c1.Cl.Cl` (stereo not shown), for the setting “Beagle dogs, IV 1 mg/kg”, the “Clearance rate CL” value is 22.3 mL/min/kg, the “Half-life T1/2 (IV)” value came to 12.4 h and the “Tissue distribution Vdss” value came out at 18.6 L/kg. The “Bioavailability F” value (Beagle dogs, IV 1 mg/kg, PO 7.5 mg/kg) was 90.4%. Moreover, where the note is “Beagle dogs, PO 7.5 mg/kg”, the “Area under drug-time curve AUC0-last PO” value is 12.6 µM·h. Also, for the setting “Beagle dogs, half male and half female, PO 7.5 mg/kg, read-out: Peak concentration Cmax”, the Cmax came to 834 nM. For the same compound, where the note is “beagle dogs”, the “pharmacokinetic properties (conclusion in words)” value was “good pharmacokinetic properties”.
